Values of other authors as cited in patent US8653026B2, “Treatment of type 2 diabetes with FTY720” (Diapin Therapeutics LLC, priority 2011, dated 2014).

Assays:
Settings in all cases: literature reference (25); cited from earlier work
S1P1 = S1P1 (Homo sapiens, UniProt P21453)
S1P2 = S1P2 (Homo sapiens, UniProt O95136)
S1P3 = S1P3 (Homo sapiens, UniProt Q99500)
S1P5 = S1P5 (Homo sapiens, UniProt Q9H228)
S1P4 = target: T1, S1P4 (Homo sapiens, UniProt O95977)
T1 sequence (O95977 1-384): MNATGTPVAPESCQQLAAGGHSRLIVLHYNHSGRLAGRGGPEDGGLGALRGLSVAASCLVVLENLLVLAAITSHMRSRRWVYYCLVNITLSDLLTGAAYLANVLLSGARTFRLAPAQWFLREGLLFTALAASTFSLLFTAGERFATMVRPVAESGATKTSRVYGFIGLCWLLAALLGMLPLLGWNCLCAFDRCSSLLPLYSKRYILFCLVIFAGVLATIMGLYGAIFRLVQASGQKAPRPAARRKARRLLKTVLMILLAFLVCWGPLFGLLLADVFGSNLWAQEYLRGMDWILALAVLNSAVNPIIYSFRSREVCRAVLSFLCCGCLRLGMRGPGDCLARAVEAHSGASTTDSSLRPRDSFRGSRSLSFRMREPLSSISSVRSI

S1P3, sequence (Q99500 whole entry, species assumed): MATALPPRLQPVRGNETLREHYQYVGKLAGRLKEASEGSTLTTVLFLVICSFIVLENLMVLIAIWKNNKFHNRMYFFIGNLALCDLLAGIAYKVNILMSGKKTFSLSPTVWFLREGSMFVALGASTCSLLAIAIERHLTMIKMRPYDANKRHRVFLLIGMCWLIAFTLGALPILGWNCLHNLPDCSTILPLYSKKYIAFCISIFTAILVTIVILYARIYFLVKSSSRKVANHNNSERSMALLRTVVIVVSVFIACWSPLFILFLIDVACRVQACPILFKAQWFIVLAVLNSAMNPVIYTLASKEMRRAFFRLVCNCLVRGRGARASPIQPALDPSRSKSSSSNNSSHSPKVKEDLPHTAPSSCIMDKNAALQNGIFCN
S1P1, sequence (P21453 whole entry, species assumed): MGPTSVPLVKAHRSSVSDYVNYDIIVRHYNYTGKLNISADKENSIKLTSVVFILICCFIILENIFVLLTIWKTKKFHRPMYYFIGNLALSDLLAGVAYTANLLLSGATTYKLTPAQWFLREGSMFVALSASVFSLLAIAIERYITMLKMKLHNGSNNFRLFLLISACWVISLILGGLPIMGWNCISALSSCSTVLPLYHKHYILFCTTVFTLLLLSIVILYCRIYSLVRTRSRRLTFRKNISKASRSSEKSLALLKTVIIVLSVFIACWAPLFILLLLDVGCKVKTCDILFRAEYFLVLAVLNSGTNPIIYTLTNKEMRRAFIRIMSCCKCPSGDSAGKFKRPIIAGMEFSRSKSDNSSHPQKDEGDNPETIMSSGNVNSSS
S1P5, sequence (Q9H228 whole entry, species assumed): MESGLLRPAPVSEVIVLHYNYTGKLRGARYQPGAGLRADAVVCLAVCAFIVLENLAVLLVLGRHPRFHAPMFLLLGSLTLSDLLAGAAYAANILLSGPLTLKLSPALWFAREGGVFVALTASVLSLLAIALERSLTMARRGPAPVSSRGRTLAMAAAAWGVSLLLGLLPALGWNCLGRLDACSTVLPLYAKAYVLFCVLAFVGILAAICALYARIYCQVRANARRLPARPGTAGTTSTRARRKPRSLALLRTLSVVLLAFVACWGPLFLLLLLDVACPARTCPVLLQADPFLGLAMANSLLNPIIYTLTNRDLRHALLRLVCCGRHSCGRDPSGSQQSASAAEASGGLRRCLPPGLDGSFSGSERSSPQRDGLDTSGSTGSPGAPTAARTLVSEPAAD
S1P2, sequence (O95136 whole entry, species assumed): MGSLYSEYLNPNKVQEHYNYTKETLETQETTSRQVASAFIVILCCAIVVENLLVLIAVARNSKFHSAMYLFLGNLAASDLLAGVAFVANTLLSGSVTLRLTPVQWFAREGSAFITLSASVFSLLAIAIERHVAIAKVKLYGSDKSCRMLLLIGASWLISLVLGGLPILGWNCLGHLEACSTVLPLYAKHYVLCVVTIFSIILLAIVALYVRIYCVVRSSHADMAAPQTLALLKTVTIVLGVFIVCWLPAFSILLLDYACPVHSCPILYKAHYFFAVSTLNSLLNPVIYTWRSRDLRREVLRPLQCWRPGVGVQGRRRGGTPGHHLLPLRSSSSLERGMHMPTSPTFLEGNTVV

**Q.** Which results are given for `CCCCCCCCc1ccc(CCC(N)(CO)COP(=O)(O)O)cc1` (centres unmarked) [FTY720-P, 2-amino-2-(hydroxymethyl)-4-(4-octylphenyl)butyl dihydrogen phosphate]?
**A.** binding to S1P1 (S1P1): binds; binding to S1P2 (S1P2): but not S1P2; binding to S1P3 (S1P3): binds; binding to S1P5 (S1P5): binds; binding to S1P4 (S1P4): binds
